Results as given in patent US20150158862A1, “1,3-DIHYDRO-2H-BENZIMIDAZOL-2-ONE DERIVATIVES SUBSTITUTED WITH HETEROCYCLES AS RESPIRATORY SYNCYTIAL VIRUS ANTIVIRAL AGENTS” (Janssen R&D Ireland, priority 2012, published 2015).

Tests used:
in vitro = format: cell-based; conditions: human
Description: (§1) Black 96-well clear-bottom microtiter plates (Corning, Amsterdam, The Netherlands) were filled in duplicate using a customized robot system with serial 4-fold dilutions of compound in a final volume of 50 μl culture medium [RPMI medium without phenol red, 10% FBS, 0.04% gentamycin (50 mg/ml) and 0.5% DMSO]. Then, 100 μl of a HeLa cell suspension (5×10^4 cells/ml) in culture medium was added to each well followed by the addition of 50 μl rgRSV224 (MOI=0.02) virus in culture medium using a multidrop dispenser (Thermo Scientific, Erembodegem, Belgium). rgRSV224 virus is an engineered virus that includes an additional GFP gene (Hallak et al, 2000) and was in-licensed from the NIH (Bethesda, Md., USA). Medium, virus- and mock-infected controls were included in each test. Cells were incubated at 37° C. in a 5% CO2 atmosphere. Three days post-virus exposure, viral replication was quantified by measuring GFP expression in the cells by a MSM laser microscope (Tibotec, Beerse, Belgium). The EC50 was defined as the 50% inhibitory concentration for GFP expression. In parallel, compounds were incubated for three days in a set of white 96-well microtitier plates (Corning) and the cytotoxicity of compounds in HeLa cells was determined by measuring the ATP content of the cells using the ATPlite kit (PerkinElmer, Zaventem, Belgium) according to the manufacturer's instructions. The CC50 was defined as the 50% concentration for cytotoxicity.

rgRSV224 virus = assay: Antiviral activity: inhibition of GFP expression of rgRSV224 virus in HeLa cells; format: cell-based, respiratory syncytial virus (RSV); conditions: human respiratory syncytial virus, 72 h, read-out: WT activity EC50
Description: as §1

SMILES | CC50 at 3 days (in vitro) [nM] | EC50 (rgRSV224 virus) [nM]
O=c1n(Cc2cc3cc(Cl)ccc3n2CCCC(F)(F)F)c2cccc(Cl)c2n1CC(F)(F)F [Compound P7, 4-chloro-1-((5-chloro-1-(4,4,4-trifluorobutyl)-1H-indol-2yl)methyl)-3-(2,2,2-trifluoroethyl)-1H-benzo [d]imidazol-2(3H)-one] | > 100000 | –
CS(=O)(=O)CCCn1c(Cn2c(=O)n(C3CC3)c3c(Cl)cccc32)cc2cc(Cl)ccc21 [Compound P6] | 31600 | 631
CS(=O)(=O)CCCn1c(Cn2c(=O)n(C3CC3)c3c(Cl)cncc32)cc2cc(Cl)ccc21 [Compound P3] | > 100000 | 19.9
O=c1n(Cc2cc3cc(Cl)ccc3n2CCCC(F)(F)F)c2cncc(Cl)c2n1CC(F)(F)F [Compound P2] | > 100000 | 100
CS(=O)(=O)CCCn1c(Cn2c(=O)n(CC(F)(F)F)c3c(Cl)cccc32)cc2cc(Cl)ccc21 [Compound P1, 4-chloro-1-((5-chloro-1-(3-(methylsulfonyl)-propyl)-1H-indol-2-yl)methyl)-3-(2,2,2-trifluoroethyl)-1H-benzo[d]imidazo-2(3H)-one] | > 100000 | 398
CS(=O)(=O)CCCn1c(Cn2c(=O)n(CC(F)(F)F)c3c(Cl)cncc32)cc2cc(Cl)ccc21 [Compound P5, 7-chloro-3-((5-chloro-1-(3-(methylsulfonyl)propyl)-1H-indol-2-yl)-methyl)-1-(2,2,2-trifluoroethyl)-1H-imidazo[4,5-c]pyridin-2(3H)-one] | 31600 | 25.1
Cc1cccc2c1n(C1CC1)c(=O)n2Cc1cc2nc(Cl)ccc2n1CCCC(F)(F)F [Compound P11, 1-((5-chloro-1-(4,4,4-trifluorobutyl)-1H-pyrrolo[3,2-b]pyridin-2-yl)-methyl)-3-cyclopropyl-4-methyl-1H-benzo[d]imidazol-2(3H)-one] | 12600 | 6310
CC(C)CCn1c(Cn2c(=O)n(C3CC3)c3c(Cl)cccc32)nc2nc(Cl)ccc21 [Compound P9, 4-chloro-1-((5-chloro-1-isopentyl-1H-imidazo[4,5-b]pyridin-2-yl)-methyl)-3-cyclopropyl-1H-benzo[d]imidazol-2(3H)-one] | > 25000 | 794
Cc1cncc2c1n(CC(F)(F)F)c(=O)n2Cc1cc2cc(Cl)ccc2n1CCCS(C)(=O)=O [Compound P8, 3-((5-chloro-1-(3-(methylsulfonyl)propyl)-1H-indol-2-yl)methyl)-7-methyl-1-(2,2,2-trifluoroethyl)-1H-imidazo[4,5-c]pyridin-2(3H)-one] | 50100 | 100
Cc1cncc2c1n(C1CC1)c(=O)n2Cc1cc2cc(Cl)ccc2n1CCCS(C)(=O)=O [Compound P4] | > 100000 | 19.9
Cc1cccc2c1n(C1CC1)c(=O)n2Cc1nc2nc(Cl)ccc2n1CCC(C)C [Compound P10, 1-((5-chloro-1-isopentyl-1H-imidazo[4,5-b]pyridin-2-yl)methyl)-3-cyclopropyl-4-methyl-1H-benzo[d]imidazol-2(3H)-one] | > 50000 | 398
